Data reported in ChEMBL document CHEMBL4406836, “The design of a cell-selective fowlicidin-1-derived peptide with both antimicrobial and anti-inflammatory activities” (Eur J Med Chem, 2019).
≈ marks a conversion by molar mass, not a printed value. Calls of active or inactive are those of the source. The calls are words filed in the database; no cut-off is given here.

Key:
Pseudomonas aeruginosa [1] = assay: Potentiation of ciprofloxacin-induced antibacterial activity against mutidrug-resistant Pseudomonas aeruginosa CCARM 2095 assessed as reduction in ciprofloxacin MIC at 1/16th MIC incubated for 72 hrs by spectrophotometry; format: functional
Pseudomonas aeruginosa [2] = format: functional; settings: CCARM 2095, 72 h
Staphylococcus aureus [3] = assay: Antibacterial activity against methicillin-resistant Staphylococcus aureus CCARM 3089 assessed as reduction in bacterial growth incubated for 18 hrs by spectrophotometry based microtiter broth dilution method; format: functional; settings: CCARM 3089, 18 h
Pseudomonas aeruginosa [4] = assay: Potentiation of chloramphenicol-induced antibacterial activity against mutidrug-resistant Pseudomonas aeruginosa CCARM 2095 assessed as reduction in chloramphenicol MIC at 1/16th MIC incubated for 72 hrs by spectrophotometry; format: functional
Staphylococcus aureus [5] = assay: Fractional inhibitory concentration, ratio of MIC of compound in presence of oxacillin to MIC of oxacillin for antibacterial activity against methicillin-resistant Staphylococcus aureus CCARM 3089; format: functional
Staphylococcus aureus [6] = assay: Fractional inhibitory concentration, ratio of MIC of compound in presence of ciprofloxacin to MIC of ciprofloxacin for antibacterial activity against methicillin-resistant Staphylococcus aureus CCARM 3089; format: functional
Staphylococcus aureus [7] = assay: Antibacterial activity against methicillin-resistant Staphylococcus aureus CCARM 3089 assessed as reduction in bacterial growth incubated for 72 hrs by spectrophotometry; format: functional; settings: CCARM 3089, 72 h
Staphylococcus aureus [8] = assay: Fractional inhibitory concentration index, sum of ratio of MIC of compound in presence of 128 uM chloramphenicol to MIC of chloramphenicol and ratio of MIC of compound in presence of chloramphenicol to MIC of chloramphenicol for antibacterial activity against methicillin-resistant Staphylococcus aureus CCARM 3089; format: functional
Staphylococcus aureus [9] = assay: Fractional inhibitory concentration, ratio of MIC of compound in presence of […] uM oxacillin to MIC of oxacillin for antibacterial activity against methicillin-resistant Staphylococcus aureus CCARM 3089; format: functional
Staphylococcus aureus [10] = assay: Fractional inhibitory concentration, ratio of MIC of compound in presence of 128 uM chloramphenicol to MIC of chloramphenicol for antibacterial activity against methicillin-resistant Staphylococcus aureus CCARM 3089; format: functional
Pseudomonas aeruginosa [11] = assay: Fractional inhibitory concentration, ratio of MIC of compound in presence of […] uM oxacillin to MIC of oxacillin for antibacterial activity against multidrug-resistant Pseudomonas aeruginosa CCARM 2095; format: functional
Pseudomonas aeruginosa [12] = assay: Fractional inhibitory concentration index, sum of ratio of MIC of compound in presence of […] uM chloramphenicol to MIC of chloramphenicol and ratio of MIC of compound in presence of chloramphenicol to MIC of compound for antibacterial activity against multidrug-resistant Pseudomonas aeruginosa CCARM 2095; format: functional
Escherichia coli = assay: Induction of membrane integrity disruption in Escherichia coli at 2 times of MIC by propidium iodide staining based flow cytometry relative to control (reference value: 2.97 %); format: functional
Pseudomonas aeruginosa [13] = assay: Antibacterial activity against multidrug-resistant Pseudomonas aeruginosa CCARM 2095 assessed as reduction in bacterial growth incubated for 18 hrs by spectrophotometry based microtiter broth dilution method; format: functional; settings: CCARM 2095, 18 h
Staphylococcus aureus [14] = assay: Antibacterial activity against methicillin-resistant Staphylococcus aureus CCARM 3089 assessed as reduction in bacterial growth incubated for 72 hrs in presence of 128 uM chloramphenicol by spectrophotometry; format: functional; settings: CCARM 3089, 72 h
Pseudomonas aeruginosa [15] = format: functional; settings: CCARM 2095, 72 h; remark: listed apart in the source
Staphylococcus aureus [16] = assay: Fractional inhibitory concentration, ratio of MIC of compound in presence of […] uM ciprofloxacin to MIC of ciprofloxacin for antibacterial activity against methicillin-resistant Staphylococcus aureus CCARM 3089; format: functional
Pseudomonas aeruginosa [17] = assay: Antibacterial activity against multidrug-resistant Pseudomonas aeruginosa CCARM 2109 assessed as reduction in bacterial growth incubated for 18 hrs by spectrophotometry based microtiter broth dilution method; format: functional; settings: CCARM 2109, 18 h
Pseudomonas aeruginosa [18] = assay: Fractional inhibitory concentration, ratio of MIC of compound in presence of […] uM chloramphenicol to MIC of chloramphenicol for antibacterial activity against multidrug-resistant Pseudomonas aeruginosa CCARM 2095; format: functional
Staphylococcus aureus [19] = assay: Potentiation of chloramphenicol-induced antibacterial activity against methicillin-resistant Staphylococcus aureus CCARM 3089 assessed as reduction in chloramphenicol MIC at 1/16th MIC incubated for 72 hrs by spectrophotometry; format: functional
Staphylococcus aureus [20] = assay: Fractional inhibitory concentration, ratio of MIC of compound in presence of chloramphenicol to MIC of chloramphenicol for antibacterial activity against methicillin-resistant Staphylococcus aureus CCARM 3089; format: functional
Pseudomonas aeruginosa [21] = format: functional; settings: CCARM 2095, 72 h; remark: listed apart in the source
Pseudomonas aeruginosa [22] = assay: Fractional inhibitory concentration index, sum of ratio of MIC of compound in presence of […] and ratio of MIC of compound in presence of ciprofloxacin to MIC of compound for antibacterial activity against multidrug-resistant Pseudomonas aeruginosa CCARM 2095; format: functional
Enterococcus faecium = assay: Antibacterial activity against vancomycin-resistant Enterococcus faecium ATCC 51559 assessed as reduction in bacterial growth incubated for 18 hrs by spectrophotometry based microtiter broth dilution method; format: functional; settings: ATCC 51559, 18 h
Staphylococcus aureus [23] = assay: Fractional inhibitory concentration index, sum of ratio of MIC of compound in presence of […] uM oxacillin to MIC of oxacillin and ratio of MIC of compound in presence of oxacillin […] antibacterial activity against methicillin-resistant Staphylococcus aureus CCARM 3089; format: functional
Staphylococcus aureus [24] = assay: Induction of cytoplasmic membrane depolarization in Staphylococcus aureus at 2 times of MIC within 4 mins by SYTOX green-based assay; format: functional, organism-based
Pseudomonas aeruginosa [25] = assay: Fractional inhibitory concentration, ratio of MIC of compound in presence of chloramphenicol to MIC of compound for antibacterial activity against multidrug-resistant Pseudomonas aeruginosa CCARM 2095; format: functional
Pseudomonas aeruginosa [26] = assay: Fractional inhibitory concentration, ratio of MIC of compound in presence of […] uM ciprofloxacin to MIC of ciprofloxacin for antibacterial activity against multidrug-resistant Pseudomonas aeruginosa CCARM 2095; format: functional
Staphylococcus aureus [27] = assay: Induction of cytoplasmic membrane depolarization in Staphylococcus aureus at 2 times of MIC for a period of 600 sec by DiSC3-5-fluorescence based assay; format: functional, organism-based
Staphylococcus aureus [28] = assay: Potentiation of ciprofloxacin-induced antibacterial activity against methicillin-resistant Staphylococcus aureus CCARM 3089 assessed as reduction in ciprofloxacin MIC at 1/16th MIC incubated for 72 hrs by spectrophotometry; format: functional
Pseudomonas aeruginosa [29] = assay: Fractional inhibitory concentration, ratio of MIC of compound in presence of ciprofloxacin to MIC of compound for antibacterial activity against multidrug-resistant Pseudomonas aeruginosa CCARM 2095; format: functional
Staphylococcus aureus [30] = assay: Potentiation of oxacillin-induced antibacterial activity against methicillin-resistant Staphylococcus aureus CCARM 3089 assessed as reduction in oxacillin MIC at 1/16th MIC incubated for 72 hrs by spectrophotometry; format: functional
Pseudomonas aeruginosa [31] = assay: Fractional inhibitory concentration, ratio of MIC of compound in presence of oxacillin to MIC of compound for antibacterial activity against multidrug-resistant Pseudomonas aeruginosa CCARM 2095; format: functional

Row | Molecule | fold change (FC) (Pseudomonas aeruginosa [1]) | MIC (Pseudomonas aeruginosa [2]) [µM] | MIC (Staphylococcus aureus [3]) [µM] | fold change (FC) (Pseudomonas aeruginosa [4]) | FIC (Staphylococcus aureus [5]) | FIC (Staphylococcus aureus [6]) | MIC (Staphylococcus aureus [7]) [µM] | fractional inhibitory concentration index (FICI) (Staphylococcus aureus [8]) | FIC (Staphylococcus aureus [9]) | FIC (Staphylococcus aureus [10]) | FIC (Pseudomonas aeruginosa [11]) | fractional inhibitory concentration index (FICI) (Pseudomonas aeruginosa [12]) | Activity (Escherichia coli) [%] | MIC (Pseudomonas aeruginosa [13]) [µM] | MIC (Staphylococcus aureus [14]) [µM] | MIC (Pseudomonas aeruginosa [15]) [µM] | FIC (Staphylococcus aureus [16]) | MIC (Pseudomonas aeruginosa [17]) [µM] | FIC (Pseudomonas aeruginosa [18]) | fold change (FC) (Staphylococcus aureus [19]) | other results
1 | CC[C@H](C)[C@H](NC(=O)[C@H](CCCCN)NC(=O)[C@H](CCC(=O)O)NC(=O)[C@H](CCCCN)NC(=O)[C@H](CO)NC(=O)[C@H](CCCCN)NC(=O)[C@H](CCCNC(=N)N)NC(=O)[C@H](Cc1ccccc1)NC(=O)[C@H](Cc1ccccc1)NC(=O)[C@H](CC(=O)O)NC(=O)CNC(=O)[C@H](CC(C)C)NC(=O)[C@@H](N)CC(C)C)C(=O)NCC(=O)N[C@@H](CCCCN)C(=O)N[C@@H](CCC(=O)O)C(=O)N[C@@H](Cc1ccccc1)C(=O)N[C@@H](CCCCN)C(=O)N[C@@H](CCCNC(=N)N)C(=O)N[C@H](C(=O)N[C@H](C(=O)N[C@@H](CCC(N)=O)C(=O)N[C@@H](CCCNC(=N)N)C(=O)N[C@H](C(=O)N[C@@H](CCCCN)C(=O)N[C@@H](CC(=O)O)C(=O)N[C@@H](Cc1ccccc1)C(=O)N[C@@H](CC(C)C)C(=O)N[C@@H](CCCNC(=N)N)C(=O)N[C@@H](CC(N)=O)C(=O)N[C@@H](CC(C)C)C(=O)N[C@H](C(=O)N1CCC[C@H]1C(=O)N[C@@H](CCCNC(=N)N)C(=O)N[C@H](C(=O)N[C@@H](CCC(=O)O)C(=O)N[C@@H](CO)C(=O)O)[C@@H](C)O)C(C)C)[C@@H](C)CC)C(C)C)[C@@H](C)CC [CATHELICIDIN] | 2 - 4 | 128 (≈ 575 µg/mL) | 8 (≈ 35.9 µg/mL) | 2 - 4 | 0.25 | 1 | 8 (≈ 35.9 µg/mL) | 1 | 0.5 | 0.5 | 1 | 0.75 | 55.5 | 4 (≈ 18 µg/mL) | 64 | 512 (≈ 2300 µg/mL) | 0.25 | 8 (≈ 35.9 µg/mL) | 0.25 | 2 - 16 | FIC (Staphylococcus aureus [20]): 0.5; MIC (Pseudomonas aeruginosa [21]): 256 µM (≈ 1150 µg/mL); fractional inhibitory concentration index (FICI) (Pseudomonas aeruginosa [22]): 0.75; MIC (Enterococcus faecium): 8 µM (≈ 35.9 µg/mL); fractional inhibitory concentration index (FICI) (Staphylococcus aureus [23]): 0.75; Activity (Staphylococcus aureus [24]): Active; FIC (Pseudomonas aeruginosa [25]): 0.5; FIC (Pseudomonas aeruginosa [26]): 0.25; Activity (Staphylococcus aureus [27]): Active; fold change (FC) (Staphylococcus aureus [28]): 2 - 16; FIC (Pseudomonas aeruginosa [29]): 0.5; fold change (FC) (Staphylococcus aureus [30]): 2 - 16; FIC (Pseudomonas aeruginosa [31]): 1
2 | H-LVIRWVRAGYKLYRAIKKK-NH2 | 4 - 16 | 64 | 4 | 4 - 16 | 0.25 | 0.125 | 4 | 0.25 | 0.25 | 0.125 | 0.25 | 0.281 | 68.98 | 2 | 16 | 128 | 0.25 | 4 | 0.031 | 4 - 32 | FIC (Staphylococcus aureus [20]): 0.125; MIC (Pseudomonas aeruginosa [21]): 32 µM; fractional inhibitory concentration index (FICI) (Pseudomonas aeruginosa [22]): 0.625; MIC (Enterococcus faecium): 4 µM; fractional inhibitory concentration index (FICI) (Staphylococcus aureus [23]): 0.5; Activity (Staphylococcus aureus [24]): Active; FIC (Pseudomonas aeruginosa [25]): 0.25; FIC (Pseudomonas aeruginosa [26]): 0.125; Activity (Staphylococcus aureus [27]): Active; fold change (FC) (Staphylococcus aureus [28]): 4 - 32; FIC (Pseudomonas aeruginosa [29]): 0.5; fold change (FC) (Staphylococcus aureus [30]): 4 - 32; FIC (Pseudomonas aeruginosa [31]): 0.25
